Structures are written as SMILES.

As to `Cc1cccc2c1C=Cc1ccccc1C2(O)CCCN(C)C` (stereo unspecified), the melting point (commonly the temperature, or range, at which the solid turns liquid) lay in the range of 141 to 143 °C. Take `COc1ccc(-c2ccc3c(c2)CC[C@H]2N(C)C(=O)CC[C@]32C)cc1OC`: the melting point lay in the range of 108 to 112 °C. Turning to `O=C1c2c(Cl)cccc2-n2cnc(-c3noc(C4CC4)n3)c2[C@@H]2CCCN12`, the melting point lay in the range of 236 to 237 °C. `N#Cc1c[nH]c2ncnc(N3CCCCC3)c12` displayed a melting point of 209 to 211 °C. As for `Fc1ccc(-c2c[nH]c3ccccc23)cc1`, the figure is 98 to 100 °C; as for `CC1CCc2c(-c3ccc([N+](=O)[O-])cc3)ccc3c(=O)c(C(=O)O)cn1c23` (stereo unspecified), over 300 °C. As for `CCCCOCC(=O)NNC(=O)N1Cc2ccccc2Oc2ccc(Cl)cc21`, the figure is 93 to 97 °C. As for `CC(C)c1cc2c(cc1CCSCC(=O)O)OCO2`, the figure is 75.5 to 76 °C; as for `CC(C)(CN)Cc1ccc(CC(C)(C)CN)cc1`, 53 to 56 °C.

For `CCn1cc(CN(C(=O)C2CCCc3cc(OCc4ccccc4)ccc32)c2ccc(C(C)C)cc2)cn1` (stereo unspecified), the melting point was in the range of 122 to 124 °C.

In turn, `O=S(=O)(c1c[nH]c(Br)c1-c1ccc(Cl)cc1)C(F)(F)F` gave a melting point of 163 to 165 °C. As for `CC(C1CC1)N(CCCc1c[nH]c2ccc(F)cc12)C1COc2c(F)ccc(C(N)=O)c2C1` (stereo unspecified), the melting point stood at 124 °C. Take `Cn1ccnc1C1Cn2cc(C(=O)NCc3ccc(Cl)cc3)c(=O)c3cc(CN4CCOCC4)cc(c32)O1` (stereo unspecified): the melting point is over 260 °C. Consider `CCC(C)CC(C)NC1=NS(=O)(=O)c2cc(Cl)ccc2N1` (stereo unspecified), for which the melting point is over 220 °C. With `COCCc1nc2c(N)nc3ccccc3c2n1CCCCNC(=O)c1cnc2ccccc2n1`, the melting point lay within 85 to 87 °C. The result for `CCOC(=O)C=Cc1nc(-c2ccc(=O)n(C(C)C)n2)c(-c2ccccc2)nc1N` reads 233 to 236 °C; that for `OCc1cc2ccc3ccccc3c2o1`, 106 to 107 °C; that for `c1ccc(C2COc3cccc4c5c(OCCN6CCNCC6)cccc5n2c34)cc1` (stereo unspecified), 72 °C.

`Cc1c(C(=O)c2cccc(Cl)c2Cl)c2cccc(Br)c2n1CCCCl` displayed a melting point of 139 °C. The result for `COc1cc(OC)c2c(=O)[nH]c(-c3cc(C)c(OCCN4CCOCC4)c(C)c3)cc2c1` reads 196 to 198 °C; that for `N#Cc1cccc(C2=Nc3ccc(CCc4ccccc4)cc3NC(=O)C2)c1`, 212 to 214 °C. Molecule `C=CCCCc1cc(-c2ccc(F)cc2)nc(C)n1` had a melting point of 44.5 to 45.5 °C. Take `Cc1ccc(NC(=O)c2cccc(C(F)(F)F)c2)cc1-c1ccc2scnc2c1`: the melting point lay in the range of 90 to 93 °C.

Turning to `NC(=O)c1sc2ncnc(-c3cc4c(c(OCc5ccccc5)c3)CCO4)c2c1N`, the melting point is 239 °C.

In turn, `COc1cc2c(c3c1OC(C)(C)C3)C(Nc1ccccc1)=NC(C)(C)C2` displayed a melting point of 135 to 136 °C. As for `Cc1cc(-c2nc(-c3cccs3)c[nH]2)ccc1O`, the figure is 167 to 172 °C; as for `CC(c1ccc2c(c1)C(=O)c1ccccc1C2=O)N1CCNCC1` (stereo unspecified), 97.7 to 98.1 °C. The result for `O=C(NC(O)C(F)(F)F)c1ccc(Cl)cc1` (stereo unspecified) reads 140 °C; that for `Oc1cccc(-c2ccc3c(-c4cccnc4)coc3c2)c1`, 205 to 207 °C. The result for `CC(C)(N)c1ccc(-c2nc(Nc3cc(F)c(F)c(F)c3)ncc2C#N)cc1` reads 220 °C; that for `CCC[C@@H]1O[C@](/C=C/C2CC2)(C(F)(F)F)c2cc(Cl)ccc2NC1=O` (relative stereo), 165 to 167 °C; that for `CCOc1ccc(O)cc1C=O`, 108 to 109 °C.

With `C=Cc1c(C(=O)O)cccc1[N+](=O)[O-]`, the melting point lay in the range of 166 to 167 °C. The molecule `COc1ccc(C(=O)N2CCC(Nc3nccc(-c4c(-c5ccc(F)cc5)nc5occn45)n3)CC2)cc1` displayed a melting point of 196 to 197 °C. As to `CCOc1ccc(Cn2cnc3c(-c4ccco4)ncnc32)cc1`, the melting point lay within 165 to 166 °C. The result for `CC(=O)OC1CSC(Oc2cncc(I)c2)C(OC(C)=O)C1OC(C)=O` (stereo unspecified) reads 148 to 150 °C; that for `C=C(Cl)C(=O)Nc1ccc(Cl)cc1`, 105 to 106 °C; that for `O=c1c(Cl)nsnc1Cl`, 81 to 82 °C. As for `COc1ccc2c(c1)c(CC(=O)OCCNC(=O)C1=CN(C)C=CC1)c(C)n2C(=O)c1ccc(Cl)cc1`, the figure is 60 to 65 °C. Turning to `COc1cccc(CC(=O)NCc2ccccc2Cl)c1`, the melting point was in the range of 89 to 91 °C.

On to `CSc1nnc(-c2cc(C(C)(C)C)c(O)c(C(C)(C)C)c2)s1`, for which the melting point was 122 °C. The result for `CC(=O)Nc1cc2c(cc1[N+](=O)[O-])OCOC2` reads 158 to 159 °C; that for `O=C(O)c1ccc(NC(=O)N(Cc2ccccc2)Cc2ccccc2)cc1`, 210 to 214 °C.

`CC[C@H](C)[C@H](NC(=O)OCc1ccccc1)C(=O)Nc1nncs1` (racemic) registered a melting point of 145 to 149 °C. In turn, `CC1(C)CC(=O)Nc2ccc([N+](=O)[O-])cc21` showed a melting point of 202 to 204 °C. `O=C1c2ccc(O)cc2OCC1Cc1cccnc1` (stereo unspecified) showed a melting point of 181 to 190 °C.

`CC(C)n1nc(-c2sc(C(=O)NCc3ccncc3)nc2-c2ccc(F)cc2)ccc1=O` yielded a melting point of 155 to 157 °C. As for `CC(=O)OCCOC(=O)C1=C(C)NC(C)=C(C(=O)CS(=O)(=O)NC(C)C)C1c1cccc([N+](=O)[O-])c1` (stereo unspecified), the figure is 133 to 136 °C; as for `CC1(C)N(C=O)CC(=O)N1CC(N)=O`, 211 to 213 °C; as for `COc1ccc(-c2nc(SC(F)(F)C(F)F)[nH]c2-c2ccncc2)cc1`, 212 to 214 °C. As for `O=C1NC(=O)C(c2ccc(-c3ccccc3)o2)O1` (stereo unspecified), the figure is 216 to 218 °C; as for `N#Cc1[nH]c(Br)c(Br)c1-c1ccc(Cl)cc1`, over 250 °C; as for `COc1ccc(C(=O)Nc2ccccc2)cc1N(S(=O)(=O)c1cc(Cl)cc(Cl)c1)S(=O)(=O)c1cc(Cl)cc(Cl)c1`, 228 to 231 °C. For the molecule `O=C(NCc1ccccc1F)[C@@H]1CCCN(c2cccc3c2C(=O)N(Cc2ccncc2)C3=O)C1`, the melting point was in the range of 196 to 197 °C. The result for `Cc1noc(C)c1C(=O)Nc1ccc(-n2nc(C3CC3)cc2C2CC2)c(F)c1` reads 166 to 168 °C; that for `CC(C)(CC(=O)O)C(Cl)CC(Cl)(Cl)C(F)(F)F` (stereo unspecified), 61 °C; that for `CC(=O)NC[C@H]1CN(c2ccc(C(=O)c3cnc4cc(C)ccn34)cc2)C(=O)O1`, 254 to 256 °C. In the case of `Cc1cc(-c2ccc(N(c3ccccc3)c3ccccc3)c(C)c2)ccc1N(c1ccccc1)c1ccccc1`, the melting point was 175 to 178 °C. As for `COC(=O)c1sc([N+](=O)[O-])cc1N=NN(C)C`, the figure is 128 to 130 °C. In the case of `Cn1c(-c2ccc([N+](=O)[O-])cc2)cnc1[C@H](Cc1ccccn1)N(C=O)c1cc2cc(F)ccc2o1`, the melting point lay in the range of 207 to 208 °C. Consider `CCc1ccccc1-c1cccc2[nH]c(C(=O)O)cc12`, for which the melting point was 230 to 233 °C. Molecule `Clc1cc(Cl)c2cccc3c2c1N=C3NCCCCCCCCCCn1ccnc1` came in with a melting point of 129 to 131 °C.

Turning to `COc1ccc(-c2nnn(-c3ccc(F)cc3Cl)c2N)cc1`, the melting point is 136 to 141 °C.

As to `O=S1(=O)c2cccc3cccc(c23)N1CCCN1CC=C(c2ccc(O)cc2)CC1`, the melting point was found to be 198 °C.

`CC(NC(=C(C#N)S(=O)(=O)c1ccc(Cl)cc1)N(C)c1cc(C(F)(F)F)cc(C(F)(F)F)c1)C(C)(C)C` (stereo unspecified): the melting point is 152 to 154 °C. As for `CC(C)C(NC(=O)CN1C=Cc2c([nH]c3c(C(=O)O)cccc23)C1)C(=O)C(F)(F)F` (stereo unspecified), the figure is 260 to 262 °C; as for `CCCc1ccc(S(=O)(=O)NCc2ccccn2)cc1`, 109 °C. Turning to `CC1(CN)CN(c2c(F)cc3c(=O)c(C(=O)O)cn(C4CC4)c3c2F)C1`, the melting point fell in the range of 268 to 270 °C. As for `Cc1ccc(C(=O)c2sc(Nc3ccc(S(N)(=O)=O)cc3)nc2N)c(C)c1`, the figure is 242 to 244 °C; as for `O=c1[nH]c2ccccc2n1CCN1CCC(C(c2ccc(F)cc2)c2ccc(F)cc2)CC1`, 104 to 106 °C. For `COc1ccccc1C1(CC(=O)O)C(=O)Nc2cc(Cl)c(Cl)cc21` (stereo unspecified), the melting point lay in the range of 222 to 224 °C. `O=C(NCCOc1ccc(CC(Oc2ccc(F)c(F)c2)C(=O)O)cc1)c1ccc(-c2ccccn2)cc1` (stereo unspecified) had a melting point of 135 to 136 °C. As for `COc1ccc(Nc2cnc3cnc(-c4ccc(O)cc4)nc3c2)cc1`, the figure is 134 to 136 °C; as for `O=C(O)CCCc1ccc(NS(=O)(=O)c2cccc(C(F)(F)F)c2)cn1`, 157 to 159 °C.

In the case of `Cc1ccc2c(c1)Nc1ncccc1NC2=O`, the melting point fell in the range of 286 to 288 °C. In the case of `Clc1c2c(nc3ccc(C4CCCCC4)cc13)CCCC2`, the melting point was in the range of 89 to 91 °C. The result for `CC(C)=C[C@@H](OC(=O)C=C(C)N[C@@H](C)c1cccc2ccccc12)C(Cl)(Cl)Cl` reads 209 to 210 °C. As for `CN1CCc2ccc(O)cc2[C@@H](c2ccccc2)C1`, the figure is 90 to 92 °C; as for `Cc1ccccc1Nc1c(C(=O)C(C)C)cnc2c(O)cccc12`, 131 to 133 °C. The result for `CCS(=O)(=O)C1C(OC)(OC)CC2C3CCC4=CC(=O)C=CC4(C)C3(F)C(O)CC21C` (stereo unspecified) reads 268 to 270 °C; that for `Cc1ccccc1-c1cc(C#N)c[nH]1`, 151 to 152 °C.

For the molecule `CCc1cc(C(=O)O)c2cc(C(C)C)cccc1-2`, the melting point lay within 154 to 156 °C. As for `COC(=O)c1c(F)cc(OCCNC(=O)C2Cc3ccccc3N2S(=O)(=O)c2ccc(-c3ccc(F)cc3C)cc2)cc1F` (stereo unspecified), the figure is 65 to 72 °C; as for `CCCOc1ccnc2c1c(C(C)=O)cn2S(=O)(=O)c1ccccc1`, 119 to 121 °C; as for `CCc1nn(Cc2nccn2C)c2c(=O)[nH]c(-c3cc(S(C)(=O)=O)ccc3OCC(C)C)nc12`, 253 to 254 °C. `CCc1cc2c(s1)-n1c(C)nnc1C(CCCC(=O)Nc1ccccc1)N=C2c1ccc(Cl)cc1` (stereo unspecified) registered a melting point of 238 to 240 °C.
